Laboratory results reported in publication PMC8047743 (ACS Omega, 2021).

Columns and labels:
HepG2 cells = assay: In vitro cytotoxicity on HepG2 cells; type: cell-based; details: 50 μM, 24 h, MTT
[1] = cited from earlier work

## Nc1c2c(nc3ccccc13)CCCC2 [tacrine, Tacrine]
HepG2 cells
  inhibitory rate (%) on HepG2 cells: 49.91 ± 0.61%
[1]
  patients with increased serum alanine aminotransferase levels: about 30%
